Patent US20080269251A1, “Substituted Pyrazinone Derivatives as Alpha2C-Adrenoreceptor Antagonists” (priority 2005, published 2008)

Columns and labels:
[1] = molecular target: T1, human adrenergic-α2A receptor (Homo sapiens, UniProt P08913); test: Radioligand binding experiment for hα2A-adrenergic receptor ([3H]raulwolscine); conditions: [3H]raulwolscine 1 nM, 60 minutes at 25° C.; for IC50: read-out: h-α2A pIC50 (converted)
T1 construct: expressed in transfected cells; host or cells: CHO cells, stably transfected; membrane preparation
T1 sequence (P08913 1-465): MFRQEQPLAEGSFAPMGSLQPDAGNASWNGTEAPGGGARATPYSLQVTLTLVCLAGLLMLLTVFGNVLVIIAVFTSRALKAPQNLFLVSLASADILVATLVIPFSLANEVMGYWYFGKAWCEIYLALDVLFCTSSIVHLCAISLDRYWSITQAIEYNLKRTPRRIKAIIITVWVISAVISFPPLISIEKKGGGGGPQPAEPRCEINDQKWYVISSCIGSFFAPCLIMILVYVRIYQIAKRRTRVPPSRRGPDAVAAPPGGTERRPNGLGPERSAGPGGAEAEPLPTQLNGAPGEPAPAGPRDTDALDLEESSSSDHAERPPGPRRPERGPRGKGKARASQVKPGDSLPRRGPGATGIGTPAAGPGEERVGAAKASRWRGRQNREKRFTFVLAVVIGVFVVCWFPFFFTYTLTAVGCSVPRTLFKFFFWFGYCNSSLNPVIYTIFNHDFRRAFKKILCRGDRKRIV
In short: (§1)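 CHO membranes expressing human α2A or α2C receptors were incubated with 1 nM [^3H]raulwolscine for 60 min at 25° C in glycylglycine 25 mM, pH 8.0, then filtered. Nonspecific binding was defined with 1 μM oxymetazoline for α2A and 1 μM spiroxatrine for α2C. pIC50 came from sigmoidal competition curves.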

[2] = molecular target: T2, 5HT-transporter (Homo sapiens, UniProt P31645); test: Binding experiment for the 5HT-transporter ([3H]paroxetine, human platelet membranes); conditions: [3H]paroxetine 0.5 nM, 60 min at 25° C.; for IC50: read-out: h-5HTT pIC50 (converted)
T2 construct: Human platelet membranes (Oceanix Biosciences Corporation, Hanover, Md., USA) were thawed; tissue Oceanix Biosciences Corporation, Hanover, Md., USA; host or cells: human platelet membranes
In short: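 Competition binding of [3H]paroxetine to human platelet membranes in Tris-HCl 50 mM with 120 mM NaCl and 5 mM KCl; bound radioligand separated by GF/B filtration and counted.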

[3] = molecular target: T3, human adrenergic-α2C receptor (Homo sapiens, UniProt P18825); test: Radioligand binding experiment for hα2C-adrenoceptor ([3H]raulwolscine); conditions: [3H]raulwolscine 1 nM, 60 minutes at 25° C.; for IC50: read-out: h-α2C pIC50 (converted)
T3 construct: expressed in transfected cells; host or cells: CHO cells, stably transfected; membrane preparation
T3 sequence (P18825 1-462): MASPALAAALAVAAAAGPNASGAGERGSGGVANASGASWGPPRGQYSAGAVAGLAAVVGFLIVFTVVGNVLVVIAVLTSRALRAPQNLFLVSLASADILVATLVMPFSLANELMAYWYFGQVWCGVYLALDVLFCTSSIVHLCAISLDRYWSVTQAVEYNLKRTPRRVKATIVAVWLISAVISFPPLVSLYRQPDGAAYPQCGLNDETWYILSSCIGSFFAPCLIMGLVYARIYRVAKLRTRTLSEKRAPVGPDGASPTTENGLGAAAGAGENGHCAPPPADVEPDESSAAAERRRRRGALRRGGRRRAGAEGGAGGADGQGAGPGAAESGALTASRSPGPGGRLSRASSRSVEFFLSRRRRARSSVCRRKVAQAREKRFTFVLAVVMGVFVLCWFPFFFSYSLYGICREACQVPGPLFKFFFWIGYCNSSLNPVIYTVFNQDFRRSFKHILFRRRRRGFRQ
In short: as §1

T2 sequence (P31645 whole entry): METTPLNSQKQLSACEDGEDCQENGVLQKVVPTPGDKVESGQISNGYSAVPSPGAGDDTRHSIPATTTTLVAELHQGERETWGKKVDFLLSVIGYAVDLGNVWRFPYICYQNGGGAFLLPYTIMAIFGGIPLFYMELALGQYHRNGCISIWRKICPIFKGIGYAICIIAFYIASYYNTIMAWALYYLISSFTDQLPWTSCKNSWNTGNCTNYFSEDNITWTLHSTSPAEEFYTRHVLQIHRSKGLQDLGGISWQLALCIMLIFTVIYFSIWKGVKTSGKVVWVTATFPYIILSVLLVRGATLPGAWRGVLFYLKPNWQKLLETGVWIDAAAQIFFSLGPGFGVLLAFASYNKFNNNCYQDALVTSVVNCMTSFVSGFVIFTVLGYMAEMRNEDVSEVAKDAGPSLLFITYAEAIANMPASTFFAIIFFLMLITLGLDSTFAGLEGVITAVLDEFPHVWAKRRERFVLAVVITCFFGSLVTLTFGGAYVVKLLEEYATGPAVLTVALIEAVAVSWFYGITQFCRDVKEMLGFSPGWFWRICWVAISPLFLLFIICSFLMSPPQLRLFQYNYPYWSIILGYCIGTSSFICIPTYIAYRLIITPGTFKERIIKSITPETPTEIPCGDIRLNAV

Row | Compound | h-α2A pIC50 [1] | h-5HTT pIC50 [2] | h-α2C pIC50 [3] | IC50 [1] [nM] | IC50 [2] [nM] | IC50 [3] [nM]
1 | CN1CCN(Cc2ccc(-n3ccnc(NC4CCN(Cc5ccc6ccccc6c5)CC4)c3=O)cc2)CC1 [2-02] | 6.9 | 8.3 | 7.8 |  |  | 
2 | CN1CCN(c2ccc(-n3ccnc(NC4CCN(Cc5ccc6ccccc6c5)CC4)c3=O)cc2)CC1 [2-03] |  |  |  | 100 | 12.6 | 25.1
3 | O=C1CN(Cc2ccc(-n3ccnc(NC4CCN(Cc5ccc6ccccc6c5)CC4)c3=O)cc2)CCN1 [2-04] |  |  |  | 126 | 31.6 | 25.1
4 | O=C(Cn1ccnc(NC2CCN(Cc3ccc4ccccc4c3)CC2)c1=O)N1CCN(c2ccccc2)CC1 [2-05] |  |  |  | 251 | 200 | 39.8
5 | O=C(Cn1ccnc(NC2CCN(Cc3ccc4ccccc4c3)CC2)c1=O)N1CCN(Cc2ccccc2)CC1 [2-06] |  |  |  | 398 | 316 | 7.94
6 | Cc1ccc(N2CCN(C(=O)Cn3ccnc(NC4CCN(Cc5ccc6ccccc6c5)CC4)c3=O)CC2)cc1C [2-07] |  |  |  | 398 | 63.1 | 79.4
7 | O=c1c(NC2CCN(Cc3ccc4ccccc4c3)CC2)nccn1CCN1CCOCC1 [2-09] |  |  |  | 1000 | 501 | 158
8 | O=c1c(NC2CCN(Cc3ccc4ccccc4c3)CC2)nccn1-c1ccc(CN2CCCCC2)cc1 [2-11] |  |  |  | 200 | 7.94 | 10
9 | O=c1c(NC2CCN(Cc3ccc4ccccc4c3)CC2)nccn1-c1ccc(CN2CCC(F)CC2)cc1 [2-12] | 7.3 | 8.4 | 8.1 |  |  | 
10 | O=c1c(NC2CCN(Cc3ccc4ccccc4c3)CC2)nccn1-c1ccc(CN2CCC(F)CC2)c(F)c1 [2-13] |  |  |  | 63.1 | 6.31 | 3.98
11 | O=c1c(NC2CCN(Cc3ccc4ccccc4c3)CC2)nccn1-c1ccc(CN2CCC(O)CC2)cc1 [2-14] |  |  |  | 158 | 5.01 | 10
12 | O=C(Cn1ccnc(NC2CCN(Cc3ccc4ccccc4c3)CC2)c1=O)N1CCC(Cc2ccccc2)CC1 [2-15] |  |  |  | 251 | 200 | 31.6
13 | O=C(Cn1ccnc(NC2CCN(Cc3ccc4ccccc4c3)CC2)c1=O)N1CCC(C(F)(F)F)CC1 [2-16] |  |  |  | 501 | 1260 | 126
14 | O=c1c(NC2CCN(Cc3ccc4ccccc4c3)CC2)nccn1-c1ccc(CN2CCC(Oc3cccnc3)CC2)cc1 [2-17] | 6.6 | 8.6 | 8.2 |  |  | 
15 | O=c1c(NC2CCN(Cc3ccc4ccccc4c3)CC2)nccn1CCO [3-01] |  |  |  | 251 | 100 | 25.1
16 | O=c1c(NC2CCN(Cc3ccc4ccccc4c3)CC2)nccn1CCCO [3-02] |  |  |  | 631 | 200 | 100
17 | O=c1c(NC2CCN(Cc3ccc4ccccc4c3)CC2)nccn1CCCCO [3-03] |  |  |  | 398 | 158 | 63.1
18 | COC(=O)CCn1ccnc(NC2CCN(Cc3ccc4ccccc4c3)CC2)c1=O [3-04] |  |  |  | 1000 | 398 | 79.4
19 | CCOC(=O)CCCn1ccnc(NC2CCN(Cc3ccc4ccccc4c3)CC2)c1=O [3-06] |  |  |  | 200 | 79.4 | 63.1
20 | CCOC(=O)CCCCn1ccnc(NC2CCN(Cc3ccc4ccccc4c3)CC2)c1=O [3-08] |  |  |  | 79.4 | 10 | 12.6
21 | O=c1c(NC2CCN(Cc3ccc4ccccc4c3)CC2)nccn1CCOc1ccccc1 [3-09] |  |  |  | 316 | 12.6 | 100
22 | O=c1c(NC2CCN(Cc3ccc4ccccc4c3)CC2)nccn1CCCOc1ccccc1 [3-10] |  |  |  | 126 | 15.8 | 50.1
23 | O=c1c(NC2CCN(Cc3ccc4ccccc4c3)CC2)nccn1CCCOCc1ccccc1 [3-11] |  |  |  | 251 | 20 | 25.1
24 | O=c1c(NC2CCN(Cc3ccc4ccccc4c3)CC2)nccn1CCOC1CCCCO1 (stereo not drawn) [3-12] |  |  |  | 631 | 79.4 | 79.4
25 | O=c1c(NC2CCN(Cc3ccc4ccccc4c3)CC2)nccn1-c1ccc(COCC2CCCO2)cc1 (stereo not drawn) [3-14] |  |  |  | 251 | 15.8 | 3.98
26 | O=c1c(NC2CCN(Cc3ccc4ccccc4c3)CC2)nccn1-c1cnc2ccccc2c1 [6-09] |  |  |  | 200 | 50.1 | 126

Further lines, results first:

Row | h-α2A pIC50 [1] | h-5HTT pIC50 [2] | h-α2C pIC50 [3] | IC50 [1] [nM] | IC50 [2] [nM] | IC50 [3] [nM] | Compound
27 |  |  |  | 1260 | 200 | 100 | CCOC(CCn1ccnc(NC2CCN(Cc3ccc4ccccc4c3)CC2)c1=O)OC (stereo not drawn) [4-01]
28 |  |  |  | 794 | 251 | 79.4 | CCOC(CCn1ccnc(NC2CCN(Cc3ccc4ccccc4c3)CC2)c1=O)OCC [4-02]
29 |  |  |  | 1000 | 316 | 100 | COC(CCn1ccnc(NC2CCN(Cc3ccc4ccccc4c3)CC2)c1=O)OC [4-03]
30 |  |  |  | 501 | 158 | 79.4 | O=c1c(NC2CCN(Cc3ccc4ccccc4c3)CC2)nccn1CCC1OCCO1 [4-04]
31 |  |  |  | 20 | 10 | 31.6 | O=c1c(NC2CCN(Cc3ccc4ccccc4c3)CC2)nccn1-c1ccc2c(c1)OCCO2 [4-05]
32 |  |  |  | 501 | 1260 | 126 | O=c1[nH]ccnc1NC1CCN(Cc2ccc3ccccc3c2)CC1 [5-01]
33 |  |  |  | 158 | 100 | 63.1 | CCCn1ccnc(NC2CCN(Cc3ccc4ccccc4c3)CC2)c1=O [5-02]
34 |  |  |  | 200 | 1000 | 100 | CC(=O)Cn1ccnc(NC2CCN(Cc3ccc4ccccc4c3)CC2)c1=O [5-03]
35 |  |  |  | 200 | 398 | 39.8 | CC(C)(C)C(=O)Cn1ccnc(NC2CCN(Cc3ccc4ccccc4c3)CC2)c1=O [5-04]
36 |  |  |  | 398 | 316 | 200 | N#CCCn1ccnc(NC2CCN(Cc3ccc4ccccc4c3)CC2)c1=O [5-05]
37 |  |  |  | 316 | 158 | 158 | O=c1c(NC2CCN(Cc3ccc4ccccc4c3)CC2)nccn1CCCC(c1ccc(F)cc1)c1ccc(F)cc1 [5-07]
38 |  |  |  | 100 | 15.8 | 50.1 | O=C(CCn1ccnc(NC2CCN(Cc3ccc4ccccc4c3)CC2)c1=O)c1ccccc1 [5-08]
39 |  |  |  | 200 | 50.1 | 79.4 | O=c1c(NC2CCN(Cc3ccc4ccccc4c3)CC2)nccn1Cc1cccc([N+](=O)[O-])c1 [5-09]
40 |  |  |  | 316 | 100 | 63.1 | O=Cc1ccc(-n2ccnc(NC3CCN(Cc4ccc5ccccc5c4)CC3)c2=O)cc1 [5-10]
41 |  |  |  | 398 | 39.8 | 63.1 | O=Cc1ccc(-n2ccnc(NC3CCN(Cc4ccc5ccccc5c4)CC3)c2=O)cc1F [5-11]
42 |  |  |  | 200 | 126 | 126 | O=c1c(NC2CCN(Cc3ccc4ccccc4c3)CC2)nccn1Cc1cccc(Br)c1 [5-13]
43 |  |  |  | 251 | 20 | 63.1 | O=c1c(NC2CCN(Cc3ccc4ccccc4c3)CC2)nccn1-c1nccs1 [6-01]
44 |  |  |  | 126 | 25.1 | 31.6 | O=c1c(NC2CCN(Cc3ccc4ccccc4c3)CC2)nccn1-c1ccc2[nH]ccc2c1 [6-02]
45 |  |  |  | 50.1 | 50.1 | 39.8 | O=c1c(NC2CCN(Cc3ccc4ccccc4c3)CC2)nccn1-c1ccc2cc[nH]c2c1 [6-03]
46 |  |  |  | 251 | 31.6 | 50.1 | O=c1c(NC2CCN(Cc3ccc4ccccc4c3)CC2)nccn1-c1csc2ccccc12 [6-04]
47 |  |  |  | 631 | 200 | 200 | O=c1c(NC2CCN(Cc3ccc4ccccc4c3)CC2)nccn1-c1cncnc1 [6-08]
